Common to all, as to assay: NCI tumour cell line growth inhibition, 48 h
For test [1], the system named is M19-MEL melanoma.
In test [2] the test system is RXF-631 renal.
Test [3] relates to XF 498 CNS.
Test [4] concerns SN12K1 renal.
Test [5] relates to P388 leukemia.

Molecules are shown by their SMILES. Several values for one entry are separate records, joined by “and”; a condition that tells them apart may be missing. Equal values may be shown once.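 Growth conditions: 96-well plates. Treatment: test compound, 48 hours, 5 concentrations. Analysis: linear interpolation between bracketing concentrations; unreached endpoints set to highest concentration. Definition used: TGI = concentration required for complete inhibition of growth.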

With `Nc1ccc(S(=O)(=O)Nc2ccc(Nc3c4ccccc4nc4ccccc34)cc2)cc1`, the TGI amounted to 21.1 µM in test [1], 10.8 µM in test [2] and 20.6 µM in test [3].

`N=[N+]=CC(=O)CCC(NC(=O)C(CCC(=O)C=[N+]=N)NC(=O)CCC(N)C(=O)O)C(=O)O` (configuration not stated): the TGI in test [4], in test [5], in test [1] and in test [3] was over 100 µM in each case.

With `C[n+]1ccc(Nc2ccc(NC(=O)c3ccc(Nc4cc[n+](C)c5ccc([N+](=O)[O-])cc45)cc3[N+](=O)[O-])cc2)cc1`, the TGI in test [4] is over 100 µM; in test [5], over 35.1 µM; in test [1], 68 µM and 61 µM; in test [3] it was 66.9 µM and > 63.2 µM.

Consider `C1CSC(=[N+]2CC[N+](=C3SCCS3)CC2)S1`, for which the TGI in test [1] and in test [2] was over 100 µM in each case.

On to `Nc1c(C(=O)Nc2ccc(C3=NCCN3)cc2)cccc1C(=O)Nc1ccc(C2=NCCN2)cc1`, for which the TGI in test [4], in test [5], in test [1] and in test [3] was over 100 µM throughout.

The record behind these values is PubChem BioAssay (NCI).
